Measurements: patent US7378387B2, “Method of suppressing immune response by reducing intracellular content of glutathione in macrophages and monocytes” (Ajinomoto Co., Inc., priority 1997, dated 2008)

Tests used:
IL-6 = IL-6 production of MΦ after NAC drinking and/or IL-2 administration (Example 8); format: in vivo, DBA/2 female mice; details: stimulated with LPS and IFNγ; control mice 1,240 pg/ml
Procedure: A stimulator was added to 1×10^6 MΦ, and the incubation was conducted at 37° C. for 2 days in a CO2 incubator. After centrifugation, the culture supernatant was collected.
The amount of IL-6 was determined using IL-6 dependent mouse hybridoma MH60 cells (J. Eur. Immunol., vol. 18, p. 951, 1988). One hundred microliters of the culture supernatant were added to 100 μl of the MH60 cell suspension adjusted to 1×10^5 cells/ml in a 10% FCS-containing RPMI medium, and the mixed solution was incubated at 37° C. for 2 days in a CO2 incubator. Subsequently, 10 μl of MTT (supplied by Sigma Co.) solution adjusted to a concentration of 5 mg/ml in the same medium were added thereto, and the reaction was conducted at 37° C. for 5 hours. […] Immediately after the dissolution, an absorbance of 570 nm was measured with an immunometer (supplied by Bio-Rad).
Two groups, namely, a group of 8-week-old DBA/2 female mice which were caused to freely drink city water as in Example 6, and a group of the same female mice which were caused to freely drink city water containing 1 mg/ml of NAC, were prepared. […] On day 14, the IL-12 production from MΦ was measured in the same manner as in Example 6.
Peritoneal cells were harvested from four groups of the mice, and stimulated with LPS and IFNγ. Then, the NO production, the IL-6 production and the IL-12 production were measured.

IL-12 [1] = experiment: IL-12 production of MΦ after NAC drinking and/or IL-2 administration (Example 8); format: in vivo, DBA/2 female mice; details: stimulated with LPS and IFNγ; control mice 0 pg/ml
Procedure: (§1) The amount of IL-12 was determined through bioassay using cells of human T cell strain 2D6 (J. Leukocyte Biology, vol. 61, p. 346, 1997).
(§2) 2D6 cells which had been incubated in an RPMI 1640 medium containing 500 pg/ml of recombinant human IL-12, 50 μM of 2-mercaptoethanol and 10% FCS (fetal calf serum) were moved to a tube, and centrifugally washed three times with the above-mentioned medium without IL-12 and cell density was adjusted to 1×10^5/ml. The cell suspension was added in an amount of 100 μl each to a 96-well flat bottom plate containing a sample serially diluted in advance with an RPMI 1640 medium containing 50 μM of 2-mercaptoethanol and 10% FCS in an amount of 100 μl each. Subsequently, the mixture was charged into a 5% […] incubator of 37° C., and incubated for 48 hours. For final 6 hours, ^3H-TdR was pulsed (a substance adjusted to 370 kBq/ml in an RPMI 1640 medium containing 50 μM of 2-mercaptoethanol and 10% FCS was added in an amount of 50 μl each). The cells a harvested, and the radioactivity was measured using a β counter (Matrix 96, supplied by Packard).

[2] = test system: macrophages within the thoracic cavity of the patient suffering from sarcoidosis; experiment: GSH and GSSG content by enzyme recycling method in macrophages of a sarcoidosis patient incubated with NAC (Example 5); format: cell-based, human; details: 5 mM NAC, 3 hours
Description: The amounts of oxidative and reductive monocytes macrophages contained in monocytes preparation separated and collected in a usual manner from the peripheral blood and the thoracic cavity of the patient suffering from sarcoidosis were examined by biochemically measuring the contents of reductive glutathione (GSH) end oxidative glutathione (GSSG) by the enzyme recycling method. The peripheral blood of the healthy person was used as a control.
The peripheral blood of the healthy person and the peripheral blood of the patient suffering from sarcoidosis were collected with heparin. Or 150 ml of a physiological saline solution was injected into the bronchia of the patient using a bronchofiber, and 75 ml of bronchoalveolar lavaged fluid were recovered. Monocytes obtained by separating and purifying both of them using Ficoll-Hypaque (LYMPHOPREP) were suspended in an RPMI 1640 medium containing 10% fetal calf serum, and washed three times to obtain macrophage/monocyte preparation adherent to a glass petri dish for 30 minutes. Subsequently, a group incubated for 3 hours with the addition of 5 mM N-acetylcysteine (NAC) and a group of a medium component alone were prepared. A rubber policeman was used to recover adherent cells from the petri dish. With respect to 5×10^5 macrophages, the following examination was conducted.
The contents of reductive glutathione and oxidative glutathione were measured by the above-mentioned enzyme recycling method. […]
A 10 mM phosphate buffer (590 μl, pH 7.5) containing 0.5 mM EDTA, 100 μl of glutathione reductase (supplied by Boehlinger Mannhein) adjusted to a concentration of 6 u/ml in the same buffer, 50 μl of 4 mM NADPH (supplied by Sigma Co.) prepared with 5% NaHCO3 and 10 μl of the sample were mixed. […] The change in the absorbance of 412 nm at 37° C. over the course of time was measured using a spectrophotometer. […]

[3] = test system: reduced glutathione in intraperitoneal macrophages; experiment: Reduced glutathione in intraperitoneal macrophages of NOD mice by ACAS (Example 22); format: in vivo; details: doses given per substance
IL-12 [4] = experiment: IL-12 production by MΦ induced by intraperitoneal injection of substances (Example 7); format: in vivo, mouse
Procedure: as §1, §2
It was examined whether there is a difference in the IL-12 production between LNT-induced MΦ and LPS-induced MΦ. […] Next, the same analysis was conducted using MΦ induced by intraperitoneally injecting substances for changing the GSH content in cells.

PGE2 = PGE2 in macrophage culture supernatant, advanced tumor-bearing mice (Example 4); format: in vivo, CDF1 mice; details: oral 1 mg/0.5 ml/h for 10 days, COLON 26 mice; control mice 32 ng/ml
Procedure: After the completion of the above-mentioned incubation, the culture supernatant was recovered. The amount of IL-6 was measured by the proliferation assay using an IL-6-dependent cell strain, MH60, the amount of PGE2 was measured using an ELISA-kit, and the amount of NO was measured using a Griess-Romijn reagent. These measurements were conducted by a method which those skilled in the art usually employ.
The COLON 26 transplantable tumor was implanted subcutaneously in the back portion of CDF1 mice at a density of 5×10^5 cells/mouse. […] Glutathione ethyl ester was orally administered to the mice every day in a dosage of 1 mg/0.5 ml/h. This oral administration was continued for 10 days. The peritoneal cells were collected from the mice in the same manner as in Example 3. Peritoneal macrophages were collected, and suspended in a phenol red-free RPMI 1640 medium containing 10% fetal calf serum to a density 3×10^5 cells/ml. The suspension was charged into a Lab-Tek Chamber Slide (#136439, supplied by Nunc) in an amount of 100 μl, and the incubation was conducted in 5% CO2 at 37° C. for 3 hours. After the nonadherent cells were removed, 200 μl of above-mentioned medium free from serum were added thereto, and 10 μM of monochlorobimane were then added thereto. […]

Row | Compound | amount of IL-6 in the macrophage culture supernatant (IL-6) | amount of IL-12 (IL-12 [1]) | ratio of reductive GSH [2] | content of reductive GSH ([2]; without NAC 1.45 μM) | content of oxidative GSSG ([2]; without NAC 15.85 μM) | relative ratio of oxidative macrophages compared with saline-dosed NOD mice ([3]; intraperitoneal dosing on alternate days from age 3-4 weeks) | relative ratio of oxidative macrophages compared with saline-dosed NOD mice ([3]; oral dosing on alternate days from age 3-4 weeks) | relative ratio of oxidative macrophages compared with saline-dosed NOD mice ([3]; oral dosing on alternate days from age 3-4 weeks, listed as glutathione ethyl ester) | IL-12 production (IL-12 [4]; MΦ induced by intraperitoneal injection of the substance, stimulation with LPS and IFNγ) | IL-12 production of substance-induced MΦ, without DEM or IL-4 (IL-12 [4]; baseline values of the DEM and IL-4 experiments) | amount of PGE2 (PGE2)
1 | CC(=O)N[C@@H](CS)C(=O)O [NAC, N-acetylcysteine, reference compound] | 320 pg/mL | 620 pg/mL | exceeded 80% | 20.45 µM | 4.32 µM |  |  |  |  |  | 
2 | CCOC(=O)CNC(=O)[C@H](CS)NC(=O)CC[C@H](N)C(=O)O [GSH-OEt, glutathione monoethyl ester] |  |  |  |  |  | same action is also observed | same action is also observed | decreased | 3,570 pg/ml | 490 pg/mL | 6.5 ng/mL
